Key:
Assay type in all cases: toxicity, cell-based
HEK-293T = assay: Incucyte cell viability with HEK293T; details: human, 10 µM, compound concentration 10 uM
Fibroblast = assay: Incucyte cell viability with human fibroblast; details: 10 µM, compound concentration 10 uM
U2OS = assay: Incucyte cell viability with U2OS; details: human, 10 µM, compound concentration 10 uM
Also: unitless GR value; below 1 slowed growth and below 0 cell loss.

Row | Structure (SMILES) | Growth Rate (HEK-293T; 0 h, replicate number 2) | Growth Rate (HEK-293T; 6 h, replicate number 1) | Growth Rate (HEK-293T; 12 h, replicate number 1) | Growth Rate (HEK-293T; 12 h, replicate number 2) | Growth Rate (HEK-293T; 18 h, replicate number 1) | Growth Rate (HEK-293T; 18 h, replicate number 2) | Growth Rate (HEK-293T; 24 h, replicate number 1) | Growth Rate (HEK-293T; 24 h, replicate number 2) | Growth Rate (Fibroblast; 6 h, replicate number 2) | Growth Rate (Fibroblast; 18 h, replicate number 2) | Growth Rate (Fibroblast; 24 h, replicate number 1) | Growth Rate (Fibroblast; 24 h, replicate number 2) | Growth Rate (U2OS; 0 h, replicate number 2) | Growth Rate (U2OS; 6 h, replicate number 1) | Growth Rate (U2OS; 12 h, replicate number 2) | Growth Rate (U2OS; 18 h, replicate number 2) | Growth Rate (U2OS; 24 h, replicate number 1) | Growth Rate (U2OS; 24 h, replicate number 2) | Growth Rate (Fibroblast; 6 h, replicate number 1) | Growth Rate (Fibroblast; 12 h, replicate number 2) | other results
1 | CC(C)c1cnc(NC(=O)Cc2ccccc2)s1 | 1 | 0.76 | 0.86 | 0.69 | 0.8 | 0.68 | 0.73 | 0.69 | 0.95 | 1 | 0.92 | 0.99 | 0.72 | 0.54 | 0.72 | 0.97 | 0.89 | 0.77 | – | – | Growth Rate (HEK-293T; 6 h, replicate number 2): 0.51; Growth Rate (Fibroblast; 0 h, replicate number 1): -0.99; Growth Rate (U2OS; 12 h, replicate number 1): 0.87; Growth Rate (U2OS; 18 h, replicate number 1): 0.77
2 | Cn1c2ccccc2c2c3c(c4c5ccccc5n(CCC#N)c4c21)CNC3=O [GO-6976] | -0.13 | 0.62 | 0.69 | -0.2 | 0.36 | -0.19 | 0.7 | -0.14 | – | 0.88 | – | 0.48 | -0.94 | – | – | 0.63 | 0.17 | 0.39 | -0.79 | – | Growth Rate (HEK-293T; 0 h, replicate number 1): -0.49; Growth Rate (HEK-293T; 6 h, replicate number 2): 0.05; Growth Rate (Fibroblast; 12 h, replicate number 1): -1; Growth Rate (U2OS; 18 h, replicate number 1): 0.29
3 | COc1ccc(Br)cc1S(=O)(=O)NC(=O)/C=C/c1cc(Cl)ccc1Cc1ccc2ccccc2c1 | 0.17 | – | – | – | – | 0.99 | – | 0.94 | -0.77 | 0.56 | 0.91 | 0.39 | – | – | – | 0.86 | – | – | 0.77 | 0.22 | Growth Rate (HEK-293T; 0 h, replicate number 1): 0.03; Growth Rate (Fibroblast; 0 h, replicate number 2): -0.66; Growth Rate (Fibroblast; 12 h, replicate number 1): 0.99; Growth Rate (Fibroblast; 18 h, replicate number 1): 0.99
4 | Cl.O=C(c1ccc(-c2ccc(Cl)cc2)o1)N(Cc1ccccn1)c1ccc(N2CCNCC2)cc1 | – | – | – | 0.52 | 0.76 | 0.43 | 0.48 | 0.25 | -1 | -0.43 | – | -0.32 | -0.97 | – | 0.87 | – | – | – | -0.62 | -0.6 | Growth Rate (Fibroblast; 12 h, replicate number 1): -1; Growth Rate (U2OS; 6 h, replicate number 2): 0.57
5 | Cc1nccn1-c1ccc(Sc2cccc(C3(C(N)=O)CCOCC3)c2)cc1 | – | 0.3 | 0.47 | -0.38 | 0.41 | -0.09 | 0.4 | 0.1 | -0.58 | 0.72 | 0.45 | 0.71 | – | – | 0.71 | 0.78 | 0.88 | 0.81 | 0.34 | 0.59 | Growth Rate (HEK-293T; 6 h, replicate number 2): -0.79; Growth Rate (Fibroblast; 0 h, replicate number 2): 0.46; Growth Rate (Fibroblast; 12 h, replicate number 1): 0.28; Growth Rate (Fibroblast; 18 h, replicate number 1): 0.33; Growth Rate (U2OS; 6 h, replicate number 2): 0.9; Growth Rate (U2OS; 12 h, replicate number 1): 0.88
6 | CCN(c1ccccc1)c1cc(NC)[n+](C)c(C)n1.[Cl-] | 0.56 | 0.95 | 0.84 | – | 0.58 | 0.99 | 0.79 | – | -1 | – | 0.44 | 0.91 | -0.9 | 0.41 | 0.84 | 0.83 | 0.87 | – | – | 0.8 | Growth Rate (Fibroblast; 0 h, replicate number 1): -0.7; Growth Rate (Fibroblast; 18 h, replicate number 1): -0.22; Growth Rate (U2OS; 6 h, replicate number 2): 0.69
7 | C=CC(=O)Nc1cc(-c2nn(C3CCC(N4CCN(C(C)=O)CC4)CC3)c3ncnc(N)c23)ccc1Oc1ccccc1 (stereo unspecified) | – | -0.71 | -0.48 | -0.56 | -0.4 | -0.22 | -0.31 | 0.09 | -0.24 | 0.33 | 0.21 | 0.67 | -0.83 | -0.85 | -0.57 | -0.48 | -0.59 | -0.41 | -0.52 | 0.07 | Growth Rate (HEK-293T; 6 h, replicate number 2): -0.92; Growth Rate (Fibroblast; 12 h, replicate number 1): -0.15; Growth Rate (Fibroblast; 18 h, replicate number 1): 0.03; Growth Rate (U2OS; 6 h, replicate number 2): -0.6; Growth Rate (U2OS; 12 h, replicate number 1): -0.62; Growth Rate (U2OS; 18 h, replicate number 1): -0.59
8 | C[C@H](CCC(=O)O)[C@H]1CC[C@H]2[C@@H]3[C@H](O)C[C@@H]4C[C@H](O)CC[C@]4(C)[C@H]3C[C@H](O)[C@]12C [CHOLIC ACID] | 0.01 | – | – | – | – | – | – | 1 | 0.33 | 0.65 | 0.81 | 0.97 | 0.9 | – | 0.92 | – | – | 0.97 | -0.41 | 0.56 | Growth Rate (HEK-293T; 0 h, replicate number 1): 0.14; Growth Rate (Fibroblast; 0 h, replicate number 1): 0.6; Growth Rate (Fibroblast; 12 h, replicate number 1): 0.82; Growth Rate (Fibroblast; 18 h, replicate number 1): 0.38; Growth Rate (U2OS; 6 h, replicate number 2): 0.92; Growth Rate (U2OS; 18 h, replicate number 1): 0.98
9 | C[C@@H]1OCC2(CCN(c3cnc(Sc4ccnc(N)c4Cl)c(N)n3)CC2)[C@@H]1N [BATOPROTAFIB] | -0.24 | – | – | – | – | – | – | – | -0.69 | – | – | – | – | 0.3 | 0.78 | 0.91 | 0.69 | 0.99 | – | 0.8 | Growth Rate (HEK-293T; 0 h, replicate number 1): 0.52; Growth Rate (Fibroblast; 0 h, replicate number 1): -1; Growth Rate (Fibroblast; 0 h, replicate number 2): 0.47; Growth Rate (U2OS; 0 h, replicate number 1): 0.89; Growth Rate (U2OS; 6 h, replicate number 2): 0.99; Growth Rate (U2OS; 12 h, replicate number 1): 0.53; Growth Rate (U2OS; 18 h, replicate number 1): 0.78
10 | CNCc1ccc(-c2cc(-c3nc(-c4ccc(S(=O)(=O)C(C)C)cc4)cnc3N)on2)cc1 [BERZOSERTIB] | -0.99 | -0.67 | -0.49 | -0.51 | -0.3 | -0.38 | -0.24 | -0.26 | – | -0.14 | -0.05 | -0.29 | – | – | 0.45 | 0.23 | 0.31 | 0.19 | – | 0.24 | Growth Rate (HEK-293T; 6 h, replicate number 2): -0.05; Growth Rate (Fibroblast; 0 h, replicate number 1): -1; Growth Rate (Fibroblast; 18 h, replicate number 1): 0.32; Growth Rate (U2OS; 0 h, replicate number 1): -1; Growth Rate (U2OS; 12 h, replicate number 1): -0.83; Growth Rate (U2OS; 18 h, replicate number 1): 0.15
11 | COc1cccc(CNc2ccc(S(=O)(=O)Nc3nc4ccccc4s3)cc2)c1O [VLX-1005] | – | – | – | – | 0.96 | – | – | – | 0.25 | 0.84 | 1 | 0.84 | – | 0.62 | – | – | 0.99 | – | – | 0.76 | Growth Rate (HEK-293T; 0 h, replicate number 1): 0.18; Growth Rate (U2OS; 12 h, replicate number 1): 0.89
12 | COCc1c(-c2cc3cc(C)cc(OC)c3s2)c2c(N)ncnn2c1CN[C@@H]1CCNC1=O | -0.02 | 0.47 | 0.43 | 0.2 | 0.61 | 0.49 | 0.62 | 0.65 | – | 0.77 | 0.46 | 0.98 | 0.73 | 0.62 | 0.77 | 0.85 | 0.44 | 0.9 | 0.36 | – | Growth Rate (HEK-293T; 0 h, replicate number 1): -0.25; Growth Rate (HEK-293T; 6 h, replicate number 2): 0.58; Growth Rate (Fibroblast; 0 h, replicate number 1): -1; Growth Rate (Fibroblast; 12 h, replicate number 1): 0.6; Growth Rate (Fibroblast; 18 h, replicate number 1): 0.59; Growth Rate (U2OS; 12 h, replicate number 1): 0.45; Growth Rate (U2OS; 18 h, replicate number 1): 0.84
13 | CCc1nc(C2CCC2)n2nc(-c3ccccc3)[nH]c(=O)c12 | -0.05 | -0.09 | 0.44 | 0.76 | 0.64 | 0.76 | 0.75 | 0.91 | -0.72 | 0.5 | – | 0.86 | – | 0.84 | – | 0.95 | – | – | – | -0.29 | Growth Rate (U2OS; 0 h, replicate number 1): 0.68
14 | CC(C)(C)C1CCc2c(sc(NC(=O)c3ccco3)c2C(=O)O)C1 (stereo unspecified) | 0.67 | -0.05 | -0.04 | -0.11 | -0.24 | -0.17 | -0.21 | -0.13 | -0.97 | – | – | – | -1 | -0.02 | 0.8 | 0.79 | – | 0.84 | 0.79 | 0.65 | Growth Rate (HEK-293T; 6 h, replicate number 2): 0; Growth Rate (Fibroblast; 0 h, replicate number 1): -0.35; Growth Rate (Fibroblast; 0 h, replicate number 2): -0.91; Growth Rate (Fibroblast; 12 h, replicate number 1): -1; Growth Rate (Fibroblast; 18 h, replicate number 1): -0.68; Growth Rate (U2OS; 6 h, replicate number 2): 0.95

— ChEMBL document CHEMBL5303304, “EUbOPEN Chemogenomics Library - IncuCyte” (2023)
